From US4315005A, “Cephalosporin antibiotics” (Glaxo Group Limited, priority 1979, dated 1982)

What was measured:
[1] = system: strains of Pseudomonas organisms, e.g. strains of Pseudomonas aeruginosa; test: antibacterial activity against Pseudomonas strains; type: cell-based
[2] = system: strains of Staphylococcus aureus; test: antibacterial activity against Staphylococcus aureus; type: cell-based
[3] = effect of human serum on antibacterial properties; type: cell-based
[4] = effect of increased inocula; type: cell-based
[5] = serum half-life in primates; type: in vivo; details: extrapolated to man
[6] = distribution in the bodies of small rodents; type: in vivo
[7] = system: gram-negative bacteria; test: experimental infections in mice with gram-negative bacteria; type: in vivo
[8] = system: strains of Pseudomonas aeruginosa; test: protection of mice against strains of Pseudomonas aeruginosa; type: in vivo; details: for protection compared with treatment with an aminoglycoside such as amikacin: vs amikacin
[9] = administration of 500 mg/kg to mice (lethality); type: in vivo; details: for deaths: 500 mg/kg; for LD50: mouse, in vivo
[10] = system: wide range of commonly encountered pathogenic organisms; test: broad spectrum antibiotic activity; type: cell-based

SMILES	activity against strains of Pseudomonas [1]	activity against strains of Staphylococcus aureus [2]	antibacterial properties in human serum [3]	effect of increased inocula against the compounds [4]	probable half-life in man from serum half-life in primates [5]	distribution in the body [6]	therapeutic levels after subcutaneous injection [6]	treatment of experimental infections with gram-negative bacteria [7]	protection against strains of Pseudomonas aeruginosa [8]	protection compared with treatment with an aminoglycoside such as amikacin [8]	deaths [9]	LD50 [9] [mg/kg]	general antibiotic properties [10]
NC(=O)C[n+]1ccc(SCC2=C(C(=O)[O-])N3C(=O)[C@@H](NC(=O)/C(=N\OC4(C(=O)O)CCC4)c4csc(N)n4)[C@H]3SC2)cc1 [(6R,7R)-7-[(Z)-2-(2-Aminothiazol-4-yl)-2-(1-carboxycyclobut-1-oxyimino)acetamido]-3-[(1-carbamoylmethylpyridinium-4-yl)thiomethyl]ceph-3-em-4-carboxylate]	excellent activity	useful activity	generally are not impaired by human serum	low	comparatively long half-life in man	well distributed	useful therapeutic levels	successfully treated	good protection	comparable with the treatment with an aminoglycoside such as amikacin	did not cause any deaths	> 500	to an outstanding extent
CC(C)(O/N=C(\C(=O)N[C@@H]1C(=O)N2C(C(=O)[O-])=C(CSc3cc[n+](CC(N)=O)cc3)CS[C@H]12)c1csc(N)n1)C(=O)O [(6R,7R)-7-[(Z)-2-(2-Aminothiazol-4-yl)-2-(2-carboxyprop-2-oxyimino)acetamido] -3-[(1-carbamoylmethylpyridinium-4-yl)thiomethyl]ceph-3-em-4-carboxylate]	excellent activity	useful activity	generally are not impaired by human serum	low	comparatively long half-life in man	well distributed	useful therapeutic levels	successfully treated	good protection	comparable with the treatment with an aminoglycoside such as amikacin	did not cause any deaths	> 500	to an outstanding extent
